Assay results as given in PMC9019904, “AD Informer Set: Chemical tools to facilitate Alzheimer's disease drug discovery” (Alzheimer's & Dementia : Translational Research & Clinical …, 2022).

What was measured:
[1] = test system: BV2 (mouse microglia) cell line; test: pHrodo-myelin phagocytosis/cell viability high content imaging assay: viability (cell count, nuclear area, nuclear intensity); settings: 48 hours treatment
Protocol: (§1) All AD Informer Set compounds were tested in two immortalized microglial cell lines, murine (BV2), and human (HMC3), in a high‐content imaging assay in duplicate by the Chu lab. Experimental details and all data can be found as supporting information files.
(§2) The role of microglia in AD has been well documented and was thus chosen as a cell type in which to profile the AD Informer Set.[43], [44], [45] As an example, neuroinflammation, as detected by the presence of activated complement proteins, interleukins, cytokines, and chemokines in microglia and astrocytes, is increased early in AD and is considered pathogenic due to its chronic nature.[33], [34] Cytotoxic effects can be assessed by considering multiple parameters.
(§3) Microglial viability and phagocytosis studies: The pHrodo-myelin phagocytosis/cell viability assay, modified based on a published method, was run with immortalized BV2 (mouse microglia) and HMC3 (human microglia) cell lines in the Chu lab at IUSM. The 384-well plate high content analysis assay with BV2 and HMC3 microglial cell lines is used to quantify both phagocytosis and cell viability simultaneously. High content imaging is performed with the ArrayScan automatic imaging system and imaging analysis done with the software on the system. After allowing cells to adhere overnight, they are treated with compounds for total 48 hours including final 20 hours seeded with pHrodo-myelin (labeled phagocytosis ligand, purified […]
(§4) (approximately 22 hours after pHrodo-myelin addition). Three measurements are extracted from the assay: 1) phagocytosis signal by mean total phagocytosis spot intensity per cell, 2) total cell counts per well as the main measurement of cell viability, and 3) mean average nuclear intensity per cell as profiling of cell health since apoptotic cells showing nuclear intensity increase (early apoptosis) and decrease (later apoptosis), respectively. These measurements allow for evaluation of compound-induced phagocytosis (1) and cytotoxicity (2 and 3). Assays were carried out at a single concentration (10 μM). Idelalisib (10 μM) and cytochalasin-D (4 μM) were used as positive controls in the assay. All data, which was an average of 2 data points, was normalized to untreated wells and reported as % control, which is included in the Supporting Information both as a raw data file and summarized in the compound/gene-annotation file.

[2] = test system: HMC3 (human microglia) cell line; test: as above; settings: 48 hours treatment
Protocol: as §1, §2, §3, §4

[3] = test system: BV2 (mouse microglia) cell line; test: pHrodo-myelin phagocytosis/cell viability high content imaging assay: phagocytosis signal; assay type: cell-based
Protocol: (§5) It is important to note that stressed cells, such as those that are dying, are prone to show an increase in phagocytosis. […] MerTK promotes phagocytosis and thus MerTK inhibition is proposed to lead to inhibition of phagocytosis.[47]
(§6) phagocytosis and cell viability simultaneously. High content imaging is performed with the
(§7) (approximately 22 hours after pHrodo-myelin addition). Three measurements are extracted
(§8) intensity increase (early apoptosis) and decrease (later apoptosis), respectively. These
and 3). […]

[4] = test system: HMC3 (human microglia) cell line; test: as above; assay type: cell-based
Protocol: as §5, §6, §7, §8
and 3). […]

[5] = BV2 cells, 10 uM compound, 48 hours treatment, pHrodo-myelin final 20 hours
[6] = HMC3 cells, 10 uM compound, 48 hours treatment, pHrodo-myelin final 20 hours
[7] = BV2, compound 10 uM, pHrodo-myelin
[8] = HMC3, compound 10 uM, pHrodo-myelin

Row | Structure (SMILES) | 1. Cell count (% control) ([1]; BV2 cells, 10 uM compound) | 2. Nuclear Area (% Control) ([1]; BV2 cells, 10 uM compound) | 3. Nuclear DNA Intensity (% control) ([1]; BV2 cells, 10 uM compound) | 1. Cell count (% control) ([2]; HMC3 cells, 10 uM compound) | 2. Nuclear Area (% Control) ([2]; HMC3 cells, 10 uM compound) | 3. Nuclear DNA Intensity (% control) ([2]; HMC3 cells, 10 uM compound) | 4. Phagocytosis (% control) [3, 5] [% control] | 4. Phagocytosis (% control) [4, 6] [% control] | 1. Cell count (% control) ([1]; BV2, compound 10 uM) | 2. Nuclear Area (% Control) ([1]; BV2, compound 10 uM) | 3. Nuclear DNA Intensity (% control) ([1]; BV2, compound 10 uM) | 1. Cell count (% control) ([2]; HMC3, compound 10 uM) | 2. Nuclear Area (% Control) ([2]; HMC3, compound 10 uM) | 3. Nuclear DNA Intensity (% control) ([2]; HMC3, compound 10 uM) | 4. Phagocytosis (% control) [3, 7] [% control] | 4. Phagocytosis (% control) [4, 8] [% control]
1 | O=c1[nH]c(=O)n([C@H]2C[C@H](O)[C@@H](CO)O2)cc1/C=C/Br [UNC10100235A] | 94.9 | 117.1 | 94.6 | 104.1 | 100.7 | 100.8 | 118.4 | 83.2 | – | – | – | – | – | – | – | –
2 | O=C1CCc2cc(OCCCCc3nnnn3C3CCCCC3)ccc2N1 [UNC10100278A] | 112.3 | 103.2 | 104.4 | 103.2 | 103.0 | 97.0 | 125.3 | 104.4 | – | – | – | – | – | – | – | –
3 | CN(C)CCCN1c2ccccc2Sc2ccc(Cl)cc21.Cl [UNC10100309D] | 82.7 | 103.4 | 99.3 | 119.8 | 102.8 | 91.9 | 128.7 | 88.5 | – | – | – | – | – | – | – | –
4 | Clc1ccccc1C(c1ccccc1)(c1ccccc1)n1ccnc1 [UNC10100375A] | – | – | – | – | – | – | – | – | 67.3 | 102.8 | 90.2 | 105.9 | 98.8 | 95.6 | 144.4 | 70.1
5 | CC(C)(C(=O)O)c1ccc(C(O)CCCN2CCC(C(O)(c3ccccc3)c3ccccc3)CC2)cc1.Cl (stereo not shown) [UNC10100548A] | 104.5 | 103.6 | 104.0 | 137.5 | 98.8 | 98.9 | 106.0 | 96.5 | – | – | – | – | – | – | – | –
6 | CC(=O)N1CCN(c2ccc(OC[C@H]3CO[C@](Cn4ccnc4)(c4ccc(Cl)cc4Cl)O3)cc2)CC1 [UNC10100724A] | 129.7 | 103.8 | 104.7 | 125.5 | 96.3 | 100.1 | 280.0 | 144.4 | – | – | – | – | – | – | – | –
7 | COc1cc([C@@H]2c3cc4c(cc3[C@H](O)[C@H]3COC(=O)[C@H]23)OCO4)cc(OC)c1OC [UNC10100984A] | 10.9 | 112.2 | 112.7 | 62.5 | 67.2 | 227.6 | 197.0 | 32.6 | – | – | – | – | – | – | – | –
8 | O=c1[nH]c2ccccc2n1C1CCN(CCCC(c2ccc(F)cc2)c2ccc(F)cc2)CC1 [UNC10101002A] | – | – | – | – | – | – | – | – | 77.1 | 99.5 | 98.4 | 97.6 | 104.3 | 96.0 | 134.9 | 140.6
9 | CC/C(=C(\c1ccccc1)c1ccc(OCCN(C)C)cc1)c1ccccc1 [UNC10101258B] | – | – | – | – | – | – | – | – | 72.9 | 98.7 | 95.7 | – | 95.6 | 91.8 | 320.1 | 72.6
10 | CN1CCN(CCCN2c3ccccc3Sc3ccc(C(F)(F)F)cc32)CC1.Cl.Cl [UNC10101287D] | – | – | – | – | – | – | – | – | 26.5 | 111.5 | 99.8 | 79.4 | 102.6 | 95.6 | 137.1 | 45.4
11 | CCCCc1nc(Cl)c(CO)n1Cc1ccc(-c2ccccc2-c2nn[nH]n2)cc1 [UNC10121212D] | 142.4 | 103.1 | 105.8 | 117.8 | 104.2 | 96.6 | 120.9 | 86.3 | – | – | – | – | – | – | – | –
12 | COc1cc(C(=O)NS(=O)(=O)c2ccccc2C)ccc1Cc1cn(C)c2ccc(NC(=O)OC3CCCC3)cc12 [UNC10121228A] | 90.6 | 103.2 | 103.9 | 110.1 | 100.7 | 103.6 | 129.0 | 87.2 | – | – | – | – | – | – | – | –
13 | C=CC[C@@H]1/C=C(\C)C[C@H](C)C[C@H](OC)[C@H]2O[C@@](O)(C(=O)C(=O)N3CCCC[C@H]3C(=O)O[C@H](/C(C)=C/[C@@H]3CC[C@@H](O)[C@H](OC)C3)[C@H](C)[C@@H](O)CC1=O)[C@H](C)C[C@@H]2OC [UNC10121346A] | 60.9 | 110.1 | 115.2 | 103.0 | 100.5 | 98.5 | 195.2 | 110.2 | – | – | – | – | – | – | – | –
14 | CN(CCOc1ccc(CC2SC(=O)NC2=O)cc1)c1ccccn1 (stereo not shown) [UNC10121399D] | 82.8 | 102.9 | 100.2 | 93.9 | 101.5 | 97.8 | 142.2 | 81.9 | – | – | – | – | – | – | – | –
15 | CCC(=O)O[C@]1(C(=O)SCF)[C@H](C)C[C@H]2[C@@H]3C[C@H](F)C4=CC(=O)C=C[C@]4(C)[C@@]3(F)[C@@H](O)C[C@@]21C [UNC10121416A] | 84.8 | 98.6 | 113.9 | 136.9 | 109.9 | 86.5 | 95.5 | 94.0 | – | – | – | – | – | – | – | –
16 | COc1ccc(/C=C/C(=O)c2ccc(OC)cc2OC)cc1 [UNC10121790A] | 72.4 | 107.4 | 104.1 | 66.8 | 97.3 | 138.7 | 199.6 | 97.7 | – | – | – | – | – | – | – | –
